For data set [1], the system named is Magnaporthe grisea (Pyricularia oryzae—PYRIOR). In words: microbe, parasite or virus in culture. The settings on record: for PYRIOR in vitro Growth Inhibition: in vitro fungal growth; for inhibition of growth at 25 µg/mL: Pyricularia oryzae, read-out: PYRIOR in vitro Growth Inhibition. The data set is classed as cell-based.
For data set [2], the system named is Rhizoctonia solani (RHIZSO). Put plainly: microbe, parasite or virus in culture. The data set is classed as cell-based. The settings on record: for inhibition of growth at 25 µg/mL: Rhizoctonia solani, read-out: RHIZSO in vitro Growth Inhibition.
For data set [3], the system named is Mycosphaerella graminicola (Septoria tritici—SEPTTR). Put plainly: Inhibition of in vitro fungal growth, SEPTTR. The data set is classed as cell-based. Further details: inhibition of growth: dose or concentration left out as unconfirmed. The following applies: for inhibition of growth: Zymoseptoria tritici, in vitro fungal growth.
For data set [4], the system named is Stagonospora nodorum (Leptosphaeria nodorum—LEPTNO). Put plainly: Inhibition of in vitro fungal growth, LEPTNO. The data set is classed as cell-based. On the set-up: inhibition of growth: dose or concentration left out as unconfirmed. The settings on record: for inhibition of growth: Leptosphaeria, in vitro fungal growth.
In data set [5] the test system is Ustilago maydis (USTIMA). Put plainly: microbe, parasite or virus in culture. The settings on record: for inhibition of growth at 25 µg/mL: Mycosarcoma maydis, read-out: USTIMA in vitro Growth Inhibition. The data set is classed as cell-based.
Data set [6] concerns Phytophthora infestans (PHYTIN). Put plainly: microbe, parasite or virus in culture. The data set is classed as cell-based. The following applies: for PHYTIN in vitro Growth Inhibition: in vitro fungal growth; for inhibition of growth at 25 µg/mL: Phytophthora infestans, read-out: PHYTIN in vitro Growth Inhibition.
Data set [7] has as its system Phytophthora infestans—PHYTIN. In words: whole plant or invertebrate. The data set is classed as in vivo. The settings on record: for PHYTIN in vivo 1 Day Protectant: tomato (cultivar Rutgers), sprayed at 100 ppm, inoculated after 24 hours, control of fungal infection vs untreated plants; for pest or weed control at 100 ppm: Phytophthora, in Solanum lycopersicum, 24 h, read-out: PHYTIN in vivo 1 Day Protectant.

In data set [8] the test system is Puccinia recondita—PUCCRT. Put plainly: Brown Rust of Wheat, in vivo whole plant, 24 Hour Protectant. The following applies: inoculated after 24 hours; for pest or weed control at 100 ppm: Puccinia, read-out: PUCCRT in vivo 1 Day Protectant.
Data set [9] relates to Septoria tritici—SEPTTR. Put plainly: Leaf Blotch of Wheat, in vivo whole plant, 24 Hour Protectant. The settings on record: for pest or weed control at 100 ppm: Zymoseptoria tritici, read-out: SEPTTR in vivo 1 Day Protectant.
The test system of data set [10] is Leptosphaeria nodorum—LEPTNO. Put plainly: Glume Blotch of Wheat, in vivo whole plant, 24 Hour Protectant. The following applies: inoculated after 24 hours; for pest or weed control at 100 ppm: Leptosphaeria, 24 h, read-out: LEPTNO in vivo 1 Day Protectant.
Data set [11] deals with Erysiphe graminis—ERYSGT. Put plainly: Powdery Mildew of Wheat, in vivo whole plant, 24 Hour Protectant. The settings on record: for ERYSGT in vivo 1 Day Protectant: wheat (cultivar Monon), sprayed at 100 ppm, inoculated after 24 hours, control of fungal infection vs untreated plants; for pest or weed control at 100 ppm: Erysiphe, in Triticum aestivum, 24 h, read-out: ERYSGT in vivo 1 Day Protectant.

Where [12] appears, read: wheat (cultivar Yuma), sprayed at 100 ppm, control of fungal infection vs untreated plants.
The mark [13] stands for this setting: wheat (cultivar Yuma), sprayed at 100 ppm, inoculated after 24 hours, control of fungal infection vs untreated plants.
Where [14] appears, read: wheat plants sprayed at 100 ppm, control vs untreated plants.

Like-named read-outs stand apart in the source and are kept apart here.

The results in this text go back to patent US7034035B2, “Fungicidal mono-, bi-, and tri-cycloheteroalkyl amides and their compositions, methods of use and preparation” (priority 1999, dated 2006).

As for “N-(3-Hydroxy-4-Methoxy-2-Pyridylcarbonyl)-2-Amino-2-Deoxy-alpha-D-Glucopyranose [Compound 334]”, the “PYRIOR in vitro Growth Inhibition” value in [1] is on record as “− (less than 80% growth inhibition)”. Also, in data set [2], the “RHIZSO in vitro Growth Inhibition” value is listed as “− (key: +: at least 80% growth inhibition; −: less than 80% growth inhibition)”. For the same molecule, the “SEPTTR in vitro Growth Inhibition” value in data set [3] is “− (key: +: at least 80% growth inhibition; −: less than 80% growth inhibition)”. Besides, the “LEPTNO in vitro Growth Inhibition” value in [4] is “− (key: +: at least 80% growth inhibition; −: less than 80% growth inhibition)”. In addition, the “USTIMA in vitro Growth Inhibition” value in data set [5] is “− (key: +: at least 80% growth inhibition; −: less than 80% growth inhibition)”. Besides, in [6], the “PHYTIN in vitro Growth Inhibition” value was “− (less than 80% growth inhibition)”. The “PHYTIN in vivo 1 Day Protectant” value in data set [7] is “− (<25% control of fungal infection)”. For the same molecule, the “PUCCRT in vivo 1 Day Protectant” value in data set [8] (setting [12]) was “− (<25% control of fungal infection)”. Moreover, in [9] (setting [13]), the “SEPTTR in vivo 1 Day Protectant” value was “− (<25% control of fungal infection)”. In data set [10] (setting [12]), the “LEPTNO in vivo 1 Day Protectant” value is “+ (25-74% control of fungal infection)”. For the same molecule, in [11], the “ERYSGT in vivo 1 Day Protectant” value is reported as “− (<25% control of fungal infection)”.

As to `COc1ccnc(C(=O)N[C@@H]2CC3CC2[C@@H](C(=O)OC(C)C)C3)c1O` (stereo partly drawn) [Compound 298], the inhibition of growth at 25 µg/mL in [1] is less than 80%; in [2] it was more than 80%; in [5], less than 80%; in data set [6] it was less than 80%. Further, the inhibition of growth in data set [3] and in data set [4] was less than 80% throughout. Further, the pest or weed control at 100 ppm in data set [7] is less than 25%; in [8] (setting [12]), 25 to 74%; in data set [9] (setting [13]), 25 to 74%; in data set [10] (setting [12]), 25 to 74%; in data set [11], less than 25%.

One may read the melting point as the temperature of the solid-liquid transition. Take `CC1(C)CC(NC(=O)c2ccnnc2O)CC(C)(C)C1` [Compound 539]: the melting point lay in the range of 263 to 265 °C. In addition, the pest or weed control at 100 ppm in data set [7] was less than 25%. Moreover, in data set [8] (setting [14]), the pest or weed control at 100 ppm lay in the range of 25 to 74%. The pest or weed control at 100 ppm in data set [9] (wheat plants sprayed at 100 ppm, inoculated after 24 hours, control vs untreated plants) lay within 25 to 74%. In addition, the pest or weed control at 100 ppm in data set [10] (setting [14]) lay within 25 to 74%. Further, the pest or weed control at 100 ppm in data set [11] is less than 25%.

Consider `COc1ccnc(C(=O)NC2CCN(Cc3ccccc3)CC2)c1O.O=C(O)/C=C\C(=O)O` [Compound 305], for which the “RHIZSO in vitro Growth Inhibition” value in [2] was “− (key: +: at least 80% growth inhibition; −: less than 80% growth inhibition)”. For the same molecule, the “SEPTTR in vitro Growth Inhibition” value in data set [3] is “− (key: +: at least 80% growth inhibition; −: less than 80% growth inhibition)”. Moreover, the “LEPTNO in vitro Growth Inhibition” value in [4] is reported as “− (key: +: at least 80% growth inhibition; −: less than 80% growth inhibition)”. The “USTIMA in vitro Growth Inhibition” value in data set [5] is “− (key: +: at least 80% growth inhibition; −: less than 80% growth inhibition)”. Besides, the pest or weed control at 100 ppm in data set [7] is 75 to 100%. For the same molecule, the “PUCCRT in vivo 1 Day Protectant” value in data set [8] (setting [12]) was “− (<25% control of fungal infection)”. Also, the “SEPTTR in vivo 1 Day Protectant” value in data set [9] (setting [13]) is recorded as “− (<25% control of fungal infection)”. Besides, the “LEPTNO in vivo 1 Day Protectant” value in data set [10] (setting [12]) is recorded as “− (<25% control of fungal infection)”. In data set [11], the “ERYSGT in vivo 1 Day Protectant” value is “− (<25% control of fungal infection)”.

On to `COC(=O)C(Cc1ccc(OCc2ccccc2)cc1)NC(=O)c1nccc(OC)c1O` (single isomer, unassigned) [Compound 338], for which the inhibition of growth at 25 µg/mL was less than 80% in data set [1], less than 80% in [2], more than 80% in data set [5] and less than 80% in [6]. The inhibition of growth in data set [3] and in [4] was less than 80% in each case. Also, the pest or weed control at 100 ppm in [8] (setting [12]) and in [10] (setting [12]) was 75 to 100% throughout.

`COc1ccnc(C(=O)NC2CC(C)(C)C(OC(=O)c3cccc(Cl)n3)C(C)(C)C2)c1O` (stereo not drawn) [Compound 269] displayed a melting point of 55 to 56 °C. Further, in data set [2], the “RHIZSO in vitro Growth Inhibition” value is recorded as “− (key: +: at least 80% growth inhibition; −: less than 80% growth inhibition)”. The “USTIMA in vitro Growth Inhibition” value in [5] is “− (key: +: at least 80% growth inhibition; −: less than 80% growth inhibition)”.

On to `Br.COc1ccnc(C(=O)NC2C[C@@H](Cc3ccccc3)O[C@@H](C)C2)c1O` (stereo partly drawn) [Compound 311], for which the “RHIZSO in vitro Growth Inhibition” value in [2] is “− (key: +: at least 80% growth inhibition; −: less than 80% growth inhibition)”. Further, the “SEPTTR in vitro Growth Inhibition” value in [3] was “− (key: +: at least 80% growth inhibition; −: less than 80% growth inhibition)”. In addition, the “LEPTNO in vitro Growth Inhibition” value in data set [4] is listed as “− (key: +: at least 80% growth inhibition; −: less than 80% growth inhibition)”. In addition, the “USTIMA in vitro Growth Inhibition” value in data set [5] is recorded as “− (key: +: at least 80% growth inhibition; −: less than 80% growth inhibition)”. The “PUCCRT in vivo 1 Day Protectant” value in [8] (setting [12]) was “+ (25-74% control of fungal infection)”. The pest or weed control at 100 ppm in [9] (24 h) lay in the range of 75 to 100%. For the same molecule, the “LEPTNO in vivo 1 Day Protectant” value in data set [10] (setting [12]) is listed as “+ (25-74% control of fungal infection)”. Also, the “ERYSGT in vivo 1 Day Protectant” value in data set [11] is “− (<25% control of fungal infection)”.

Turning to `O=C(N[C@H]1CC2CC1[C@@H]1CCC[C@H]21)c1ncccc1O` (stereo partly drawn) [Compound 206], the “PYRIOR in vitro Growth Inhibition” value in data set [1] was “+ (at least 80% growth inhibition)”. The “RHIZSO in vitro Growth Inhibition” value in [2] was “+ (key: +: at least 80% growth inhibition; −: less than 80% growth inhibition)”. In addition, the “SEPTTR in vitro Growth Inhibition” value in data set [3] is “+ (key: +: at least 80% growth inhibition; −: less than 80% growth inhibition)”. Also, in data set [4], the “LEPTNO in vitro Growth Inhibition” value is given as “+ (key: +: at least 80% growth inhibition; −: less than 80% growth inhibition)”. Besides, the “USTIMA in vitro Growth Inhibition” value in [5] was “− (key: +: at least 80% growth inhibition; −: less than 80% growth inhibition)”. Also, the “PHYTIN in vitro Growth Inhibition” value in data set [6] is “− (less than 80% growth inhibition)”. In data set [7], the “PHYTIN in vivo 1 Day Protectant” value is “− (<25% control of fungal infection)”. Also, the “PUCCRT in vivo 1 Day Protectant” value in data set [8] (setting [12]) was “− (<25% control of fungal infection)”. For the same molecule, the “SEPTTR in vivo 1 Day Protectant” value in data set [9] (setting [13]) is listed as “− (<25% control of fungal infection)”. Besides, in [10] (setting [12]), the “LEPTNO in vivo 1 Day Protectant” value was “− (<25% control of fungal infection)”. The “ERYSGT in vivo 1 Day Protectant” value in data set [11] is “− (<25% control of fungal infection)”.

As for `C[C@H]1C2CC([C@H]3CCC[C@@H]23)[C@@H]1NC(=O)c1ncccc1O` (stereo partly drawn) [Compound 207], in data set [1], the “PYRIOR in vitro Growth Inhibition” value is “+ (at least 80% growth inhibition)”. Also, in data set [2], the “RHIZSO in vitro Growth Inhibition” value was “− (key: +: at least 80% growth inhibition; −: less than 80% growth inhibition)”. Moreover, in data set [3], the “SEPTTR in vitro Growth Inhibition” value is given as “+ (key: +: at least 80% growth inhibition; −: less than 80% growth inhibition)”. The “LEPTNO in vitro Growth Inhibition” value in data set [4] was “+ (key: +: at least 80% growth inhibition; −: less than 80% growth inhibition)”. The “USTIMA in vitro Growth Inhibition” value in data set [5] is listed as “− (key: +: at least 80% growth inhibition; −: less than 80% growth inhibition)”. In addition, the “PHYTIN in vitro Growth Inhibition” value in data set [6] was “− (less than 80% growth inhibition)”. Also, in data set [7], the “PHYTIN in vivo 1 Day Protectant” value is “− (<25% control of fungal infection)”. Also, in [8] (setting [12]), the “PUCCRT in vivo 1 Day Protectant” value is “− (<25% control of fungal infection)”. The “SEPTTR in vivo 1 Day Protectant” value in data set [9] (setting [13]) was “− (<25% control of fungal infection)”. Also, the “LEPTNO in vivo 1 Day Protectant” value in [10] (setting [12]) is “− (<25% control of fungal infection)”. The “ERYSGT in vivo 1 Day Protectant” value in [11] was “− (<25% control of fungal infection)”.
